According to patent publication US20240385182A1, “MASKED FLUOROGENIC LIPID COMPOUNDS, LIPID PARTICLES COMPRISING THE SAME, AND METHODS OF USE THEREOF” (Rutgers, The State University of New Jersey, priority 2023, published 2024):

System: CD11b^+ macrophage population from BAL cells
Assay: Murine model of ITB-induced ALI: DPPC-TC fluorescence in BAL cells by flow cytometry
Type: in vivo, mice
Conditions: 0.5 mM LNPs (5 mol % probe) on day 3, BAL 3 hour-post instillation, n = 3
From the text: FIGS. 11A-11B: flow cytometry analysis of myeloid-derived BAL cells for migratory phenotype and DPPC-TC-ONOO^− probe activity in murine model of ALI. FIG. 11A: conceptual illustration of ITB-induced ALI and LNP instillation. FIG. 11B: classification of myeloid-derived BAL cells by migratory phenotype (CD11b+) and DPPC-TC fluorescence. Quadrant plots are shown for individual mice, which were used to quantify DPPC-TC as a measure of peroxynitrite generation. After successfully imaging the iNOS dependent peroxynitrite activity in both HeLa and RAW264.7, the potential of DPPC-TC-ONOO^− for detecting peroxynitrite generated in lung tissue injury using a pre-established murine model of ALI was explored (FIGS. 11A-11B). During ALI, release of cytokines and chemokines, such as tumor necrosis factor-alpha (TNF-α) and interleukin-1 beta ([…]), recruit macrophages and other immune cells to the site of injury. During the initial phase of injury (d0-d3), pro-inflammatory macrophages are dominant, which is associated with higher levels of iNOS expression. Herein, a previously reported ITB method was employed, which causes a severe inflammatory response characterized by infiltration of immune cells, which is dependent upon iNOS activation. For a generalizable and biocompatible instillation protocol, LNP concentrations ranging from 0.5 to 2.0 mM were evaluated. LNPs carrying DPPC-TC (5 mol % of the lipid content) were employed in C57BL6/J mice and the viability of the cells from BAL was analyzed via flow cytometry. Results indicated 94% viability at 0.5 mM LNP concentration, which was employed for the subsequent experiments. On d0, mice (C57BL6/J or iNOS^−/−) were anesthetized and received an intratracheal instillation of either PBS (control) or bleomycin (FIGS. 11A-11B). To detect the peroxynitrite generation during the early inflammatory response, mice were again anesthetized and instilled with 0.5 mM LNPs containing DPPC-TC-ONOO^− (5 mol % of the lipid content) on day 3. […] The migratory population was further analyzed for DPPC-TC signal quantification (Table 4).

Q: Which “DPPC-TC p:n ratio” value (WT-ITB) does the source give for `CCCCCCCCCCCCCCCC(=O)OCC(COP(=O)([O-])OCC[N+](C)(C)Cc1cn(-c2cc3ccc(OC(=O)Oc4ccc(CCC(=O)C(F)(F)F)cc4)cc3oc2=O)nn1)OC(=O)CCCCCCCCCCCCCCC` (racemic) [DPPC-TC-ONOO^−] here?
A: The value was 0.72 ± 0.008.

Q: What about the “DPPC-TC p:n ratio” value (WT-PBS) of the same compound?
A: The value was 0.55 ± 0.021.

Q: And the “DPPC-TC p:n ratio” value (iNOS^−/−-ITB)?
A: The value was 0.56 ± 0.018.
